Results on 3 molecules are retold here after paper PMC8304783, “Antiadhesive Properties of Imidazolium Ionic Liquids Based on (−)-Menthol Against Candida spp” (International Journal of Molecular Sciences, 2021).

Experiment [1] has as its system C. albicans. Nature of the experiment: Detachment of adherent cells from polystyrene (crystal violet). The experiment is classed as cell-based. The following applies: C. albicans on polystyrene, 2 h treatment; over MIC, 2 × MIC and 4 × MIC. The method, then:
(§1) Thus, for the evaluation of ILs on fungal adhesion, higher concentrations were used, corresponding to 1, 2 and 4 times the MIC90 values (Figure 1).
(§2) Figure 1 Detachment of adherent Candida spp. cells after 2 h incubation on polystyrene surfaces by ionic liquids (ILs) (A) or amphotericin B (AMB) (B) (means ± SD; n = 3). Results are presented as percentage of adherent cells relative to untreated controls (100% adhesion). Statistical analysis of detachment at each concentration was performed towards corresponding control experiments (fungi untreated by ILs or AMB = 100% adhesion) (*, p < 0.05 and **, p < 0.01).
(§3) Post-adherence treatment with ILs was performed in a similar manner to that described previously by our team. Candida spp. suspensions were prepared by centrifuging YPD-grown cultures and resuspending fungal mass in PBS to an OD600 = 0.6. Sterile 96-well plates were inoculated with the prepared suspensions and incubated for 2 h at 37 °C to induce fungal adhesion. Afterwards, adherent cells were washed with PBS to remove planktonic cells and treated with ILs (concentrations equivalent to 1, 2 or 4 × MIC90 for each fungi) for 2 h at 37 °C. Then, each well was washed with PBS and adherent cells were fixed with 0.1% CV solution for 5 min, and washed with PBS. Cells were then treated with a solution of isopropanol 0.04 N HCL with 0.1% SDS to permeabilize adherent cells and release the CV dye. The absorbance of CV was measured at 590 nm (ASYS UVM 340 Biogenet). The percentage of cells that were removed was determined in comparison to adherent cells treated with PBS only (designated 100% adhesion).

Another experiment has as its system C. glabrata. Described as above. The experiment is classed as cell-based. The settings on record: C. glabrata on polystyrene, 2 h treatment. The protocol: as §1, §2, §3
The test system of another experiment is C. krusei. Described as above. The experiment is classed as cell-based. The following applies: C. krusei on polystyrene, 2 h treatment; over MIC, 2 × MIC and 4 × MIC. The method, then:
as §1, §2, §3

The test system of another experiment is C. parapsilosis. Described as above. The experiment is classed as cell-based. The settings on record: C. parapsilosis on polystyrene, 2 h treatment, 2 × MIC and 4 × MIC. The method, then: as §1, §2, §3
Experiment [2] concerns C. albicans. Nature of the experiment: Calcofluor white staining (cell wall integrity). It is filed as cell-based. The settings on record: ILs 25 µM, 2 h, 37 °C. The protocol:
(§4) Fungal adhesion to biomedical surfaces is strongly related to the structure of the cell wall, and the presence of adhesins (Als proteins) on the surface of the cell. In turn, the progression to biofilm formation is dependent on the ability of C. albicans to form hyphae. In conditions similar to those above (ILs conc. = 25 µM), we examined C. albicans cell wall integrity, its ability to form hyphae, and the level of ALS genes expression, encoding Als1 and Als5 adhesins (Figure 3). […] Despite some reduction, the result was not statistically significant (p = 0.12). On the other hand, after the treatment with IL 2a, the expression of ALS1 and ALS5 genes was reduced by 50 or 55%, respectively (Figure 3C). The results were statistically significant in both cases (p = 0.04 for either ALS gene). However, in case of compounds with alkyl substituents (1a and 1b), the reduction of gene expression was to a lesser degree. […] Despite observing a chain-length dependence, the results were not statistically significant (p = 0.07 for both ALS gene after treatment with 1b).
Calcofluor white was used to assess cell wall integrity in C. albicans, following our protocol. YPD-grown C. albicans cells were pelleted, washed with PBS and treated with ILs (conc. = 25 µM) for 2 h at 37 °C. Afterwards, the samples were washed with PBS, stained with calcofluor white (final conc. = 25 µM) for 5 min. Then, cell suspensions were washed with PBS, pelleted and observed under the Zeiss (Poznań, Poland) Axio Imager A2 microscope equipped with Zeiss Axiocam 503 mono microscope camera and the Zeiss HBO100 mercury lamp.

In a further experiment the test system is ALS1. Nature of the experiment: Real time quantitative PCR, relative gene expression. It is filed as cell-based, C. albicans. The following applies: ILs 25 µM, 2 h; relative to untreated cells (100%). The protocol: as §4
(§5) Figure 3 (A) C. albicans calcofluor white staining following a 2 h treatment with 1a,2a,1b ILs (conc. = 25 µM). Control experiment represents untreated calcofluor white-stained cells. Scale bar = 2.5 µm. (B) FBS-induced hyphae formation after 2 h treatment with 1a,2a,1b ILs (conc. = 25 µM). Control condition was C. albicans treated with FBS only. Scale bar = 10 µm. (C) Relative ALS1 and ALS5 gene expression in C. albicans following a 2 h treatment with 1a,2a,1b ILs (conc. = 25 µM). Gene expression levels are reported as means of 2^−∆∆CT values (n = 6) ± SD; normalized to 100% for untreated cells (control). Statistical analyses were performed by comparing expression under treatment with each IL to untreated cells. * p < 0.05.
(§6) YPD-grown C. albicans cells were pelleted, washed with PBS and treated with ILs (conc. = 25 µM) for 2 h at 37 °C. Next, the cells were pelleted, and concentrated (PBS; OD600 = 20). RNA was isolated using the Total RNA Mini Kit (A&A Biotechnology, Gdańsk, Poland). Synthesis of cDNA and calculation of gene expression levels were performed as previously described. The following gene-specific primers were used: ACT1_F (5′-TCCAGCTTTCTACGTTTCCA-3′), ACT1_R (5′-GTCAAGTCTCTACCAGCCAA-3′), ALS1_F (5′-TGTTGGTGTGACTACTTCCT-3′), ALS1_R (5′-TGT ACC ACT GTG TCA AT-3′), ALS5_F (5′-CTCCACTAGTTATGGGGATGT-3′) and ALS5_R (5′-TGAGGGAGAAATATAAGCGTCA-3′).

The test system of a further experiment is ALS5. The description is as above. The experiment is classed as cell-based, C. albicans. The following applies: ILs 25 µM, 2 h; relative to untreated cells (100%). The method, then: as §4, §5, §6
[3] abbreviates: highest concentration (4 × MIC).

With `CCCCCCCCCCn1cc[n+](CO[C@@H]2C[C@H](C)CC[C@H]2C(C)C)c1` [1b, 3-decyl-1-[(1R,2S,5R)-(−)-menthoxymethyl]imidazolium chloride], the Reduction of adhesion was 20–25% in the experiment on C. albicans [1]; ~ 20% in the experiment on C. glabrata (2 × MIC and 4 × MIC); “did not significantly reduce” with C. krusei; 20–25% in the experiment with C. parapsilosis. For the same molecule, the “Calcofluor white staining of chitin (cell wall integrity)” value (from here on “Calcofluor white staining of chitin”) with C. albicans [2] is listed as “well-defined, intense chitin fluoresce with clearly visible bud scars, comparable with the control staining”. Moreover, in the experiment on ALS1, the “Reduction of ALS1 gene expression” value turned out to be 45%. Further, in the experiment with ALS5, the “Reduction of ALS5 gene expression” value turned out to be 40%.

Turning to `CCCCCCCCCOCn1cc[n+](CO[C@@H]2C[C@H](C)CC[C@H]2C(C)C)c1` [2a, 1-(1R,2S,5R)-(−)-menthoxymethyl-3-nonyloxymethylimidazolium chloride], the Reduction of adhesion in the experiment on C. albicans [1] is 20–30%; with C. glabrata (setting [3]), “approximately 45%”; in the experiment on C. krusei, 10–20%; in the experiment with C. parapsilosis (over MIC), 30–40%. Moreover, the “Calcofluor white staining of chitin” value with C. albicans [2] was “low fluorescence intensity and thinner calcofluor white-stained chitin layer surrounding cells than the controls”. For the same molecule, the “Reduction of ALS1 gene expression” value in the experiment with ALS1 is 50%. The “Reduction of ALS5 gene expression” value in the experiment on ALS5 was 55%.

Take `CCCCCCCCCn1cc[n+](CO[C@@H]2C[C@H](C)CC[C@H]2C(C)C)c1` [1a, 1-[(1R,2S,5R)-(−)-menthoxymethyl]-3-nonylimidazolium chloride]: the Reduction of adhesion result with C. albicans [1] is “did not influence the adherent properties”; with C. glabrata (setting [3]), ~ 40%; in the experiment on C. krusei, “approximately 10%”; in the experiment on C. parapsilosis (over MIC) it was “did not influence the adherent properties”. Besides, the “Calcofluor white staining of chitin” value in the experiment with C. albicans [2] is given as “well-defined, intense chitin fluoresce with clearly visible bud scars, comparable with the control staining”. In addition, in the experiment on ALS1, the “Reduction of ALS1 gene expression” value is 20%. In the experiment on ALS5, the “Reduction of ALS5 gene expression” value worked out at 10%.
